Toxic doses and inconclusive results are not listed. The calls were made as follows: active = survival T/C of 150% or more; inactive = T/C below 125% in these data.
Test system: BDF1 mice, P388 leukemia ip, median survival T/C
Test: NCI In Vivo Anticancer Drug Screen. Data for tumor model P388 Leukemia (intraperitoneal) in B6D2F1 (BDF1) mice
Settings: endpoint: median survival time, higher = longer survival
Outline: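 Antitumour effect was judged in vivo: survival in drug-treated mice, normalised to that of vehicle-dosed controls, gives the reported T/C.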

[1] = dose: 50.0 mg/kg/injection, schedule: Q01DX009 (ip), vehicle: Klucel (hydroxypropylcellulose) (HPC)
[2] = dose: 100.0 mg/kg/injection, schedule: Q01DX009 (ip), vehicle: Klucel (hydroxypropylcellulose) (HPC)
[3] = dose: 50.0 mg/kg/injection, schedule: Q01DX001 (ip), vehicle: saline with Tween-80
[4] = dose: 5.0 mg/kg/injection, schedule: Q01DX009 (ip), vehicle: other
[5] = dose: 12.5 mg/kg/injection, schedule: Q01DX009 (ip), vehicle: saline
[6] = dose: 50.0 mg/kg/injection, schedule: Q01DX009 (ip), vehicle: saline
[7] = dose: 25.0 mg/kg/injection, schedule: Q01DX009 (ip), vehicle: saline with Tween-80
[8] = dose: 50.0 mg/kg/injection, schedule: Q01DX009 (ip), vehicle: saline with Tween-80
[9] = dose: 100.0 mg/kg/injection, schedule: Q01DX009 (ip), vehicle: saline with Tween-80
[10] = dose: 200.0 mg/kg/injection, schedule: Q01DX009 (ip), vehicle: saline with Tween-80
[11] = dose: 100.0 mg/kg/injection, schedule: Q01DX009 (ip), vehicle: saline
[12] = dose: 200.0 mg/kg/injection, schedule: Q01DX009 (ip), vehicle: saline
[13] = dose: 200.0 mg/kg/injection, schedule: Q01DX009 (ip), vehicle: Klucel (hydroxypropylcellulose) (HPC)
[14] = dose: 400.0 mg/kg/injection, schedule: Q01DX009 (ip), vehicle: Klucel (hydroxypropylcellulose) (HPC)

Measured: T/C

COc1ccc(OC)c2nc3c(=O)[nH]c(=O)[nH]c3nc12
inactive: dose: 55.0 mg/kg/injection, schedule: Q01DX010 (ip), vehicle: water 100 % of control | dose: 80.0 mg/kg/injection, schedule: Q01DX010 (ip), vehicle: water 109 % of control | dose: 120.0 mg/kg/injection, schedule: Q01DX010 (ip), vehicle: water 109 % of control | dose: 180.0 mg/kg/injection, schedule: Q01DX010 (ip), vehicle: water 118 % of control

CCCN1CSC(=S)N(CCC)C1
inactive: [1] 100 % of control
active: [2] 170 % of control

Cc1cc(Nc2cccc(Cl)c2)cc(=O)[nH]1
inactive: [3] 113 % of control | dose: 100.0 mg/kg/injection, schedule: Q01DX001 (ip), vehicle: saline with Tween-80 100 % of control | dose: 200.0 mg/kg/injection, schedule: Q01DX001 (ip), vehicle: saline with Tween-80 98 % of control

CC1=C(O)/C(=C\C(C)CCCC(C)/C=C/C=C(\C)CCCc2ccoc2)OC1=O (stereo not drawn)
inactive: [4] 98 % of control | dose: 10.0 mg/kg/injection, schedule: Q01DX009 (ip), vehicle: other 96 % of control | dose: 20.0 mg/kg/injection, schedule: Q01DX009 (ip), vehicle: other 97 % of control

O=[N+]([O-])C(Cl)(Cl)C(Cl)(Cl)[N+](=O)[O-]
inactive: dose: 1.25 mg/kg/injection, schedule: Q01DX009 (ip), vehicle: other 100 % of control | dose: 2.5 mg/kg/injection, schedule: Q01DX009 (ip), vehicle: other 100 % of control | dose: 2.5 mg/kg/injection, schedule: Q04DX003 (ip), vehicle: other 87 % of control | [4] 95 % of control | dose: 5.0 mg/kg/injection, schedule: Q04DX003 (ip), vehicle: other 104 % of control

Nc1nc(-c2cccnc2)cc2ccccc12
inactive: dose: 12.5 mg/kg/injection, schedule: Q04DX003 (ip), vehicle: saline with Tween-80 106 % of control | dose: 25.0 mg/kg/injection, schedule: Q04DX003 (ip), vehicle: saline with Tween-80 91 % of control

Nc1ccc(N(CCCl)CCN(CCCl)c2ccc(N)cc2)cc1
active: dose: 0.8 mg/kg/injection, schedule: Q01DX009 (ip), vehicle: saline 154 % of control | dose: 1.2 mg/kg/injection, schedule: Q01DX009 (ip), vehicle: saline 181 % of control | dose: 1.8 mg/kg/injection, schedule: Q01DX009 (ip), vehicle: saline 204 % of control

O=C(CC(Cl)(C(F)(F)F)C(F)(F)F)c1cccc([N+](=O)[O-])c1
inactive: dose: 12.5 mg/kg/injection, schedule: Q01DX001 (ip), vehicle: saline with Tween-80 113 % of control | dose: 25.0 mg/kg/injection, schedule: Q01DX001 (ip), vehicle: saline with Tween-80 109 % of control | [3] 109 % of control

O=C(Nc1ccc(S(=O)(=O)Nc2ccc(N=Nc3ccccc3)cc2)cc1)C(SC1=NC=NC2=NC=NC21)SC1=NC=NC2=NC=NC21 (stereo not drawn)
inactive: dose: 100.0 mg/kg/injection, schedule: Q04DX003 (ip), vehicle: saline 95 % of control | dose: 200.0 mg/kg/injection, schedule: Q04DX003 (ip), vehicle: saline 105 % of control | dose: 400.0 mg/kg/injection, schedule: Q04DX003 (ip), vehicle: saline 115 % of control

c1ccc2c(c1)CC1CCCCN1C2 (stereo not drawn)
inactive: dose: 12.5 mg/kg/injection, schedule: Q01DX009 (ip), vehicle: Klucel (hydroxypropylcellulose) (HPC) 100 % of control | [5] 100 % of control | dose: 25.0 mg/kg/injection, schedule: Q01DX009 (ip), vehicle: Klucel (hydroxypropylcellulose) (HPC) 105 % of control | dose: 25.0 mg/kg/injection, schedule: Q01DX009 (ip), vehicle: saline 90 % of control | dose: 37.5 mg/kg/injection, schedule: Q04DX003 (ip), vehicle: saline 95 % of control | [1] 100 % of control | [6] 110 % of control | dose: 75.0 mg/kg/injection, schedule: Q04DX003 (ip), vehicle: saline 86 % of control

CCCCS(=O)/C=C\C(=O)NCCC (stereo not drawn)
inactive: [7] 100 % of control | [8] 99 % of control | [9] 100 % of control

Oc1c(Cl)cc(Cl)cc1C=Nc1cc(C(F)(F)F)ccc1NCc1ccccc1
inactive: [8] 93 % of control | [9] 89 % of control | [10] 94 % of control

CC(O)CN1CNC(=S)NC1 (stereo not drawn)
inactive: [6] 99 % of control | [11] 101 % of control | [12] 106 % of control

CCOC(=O)CC1NCCC2C1CCC(OC)C2OC (stereo not drawn)
inactive: dose: 12.5 mg/kg/injection, schedule: Q01DX009 (ip), vehicle: saline with Tween-80 95 % of control | [7] 100 % of control | [8] 100 % of control | dose: 50.0 mg/kg/injection, schedule: Q04DX003 (ip), vehicle: other 110 % of control | dose: 100.0 mg/kg/injection, schedule: Q01DX009 (ip), vehicle: other 105 % of control | dose: 100.0 mg/kg/injection, schedule: Q04DX003 (ip), vehicle: other 100 % of control | dose: 200.0 mg/kg/injection, schedule: Q01DX009 (ip), vehicle: other 110 % of control | dose: 200.0 mg/kg/injection, schedule: Q04DX003 (ip), vehicle: other 100 % of control

CC(N)Cc1c(Cl)cc(N(C)C)cc1Cl (stereo not drawn)
inactive: dose: 3.13 mg/kg/injection, schedule: Q01DX009 (ip), vehicle: saline 100 % of control | dose: 6.25 mg/kg/injection, schedule: Q01DX009 (ip), vehicle: saline 100 % of control | [5] 102 % of control

CC(C)C1OC(=O)C=C2C3(C)CC=CC4(C)C(=O)OC(C43)C3OC213 (stereo not drawn)
inactive: dose: 5.0 micrograms/kg/injection, schedule: Q01DX009 (ip), vehicle: saline + alcohol 109 % of control | dose: 20.0 micrograms/kg/injection, schedule: Q01DX009 (ip), vehicle: saline + alcohol 100 % of control | dose: 80.0 micrograms/kg/injection, schedule: Q01DX009 (ip), vehicle: saline + alcohol 90 % of control | dose: 250.0 micrograms/kg/injection, schedule: Q01DX009 (ip), vehicle: saline + alcohol 109 % of control | dose: 1000.0 micrograms/kg/injection, schedule: Q01DX009 (ip), vehicle: saline + alcohol 109 % of control | dose: 4000.0 micrograms/kg/injection, schedule: Q01DX009 (ip), vehicle: saline + alcohol 104 % of control

COc1cc(OC)c(/C=C/c2ccncn2)c(OC)c1
inactive: [8] 101 % of control | [9] 108 % of control | [10] 117 % of control

Cc1ccc(S(=O)(=O)Oc2ccc(-c3ccc(OS(=O)(=O)c4ccc(C)cc4)cc3)cc2)cc1
inactive: [8] 107 % of control | [9] 111 % of control | [10] 90 % of control | dose: 400.0 mg/kg/injection, schedule: Q01DX009 (ip), vehicle: saline with Tween-80 94 % of control

CCOC(=O)C(=O)c1c[nH]c2ccccc12
inactive: dose: 50.0 mg/kg/injection, schedule: Q04DX003 (ip), vehicle: saline with Tween-80 90 % of control | [2] 109 % of control | dose: 100.0 mg/kg/injection, schedule: Q04DX003 (ip), vehicle: saline with Tween-80 104 % of control | [13] 90 % of control | dose: 200.0 mg/kg/injection, schedule: Q04DX003 (ip), vehicle: saline with Tween-80 100 % of control | [14] 109 % of control

CC1=C(Br)C(=O)C(c2c(C)c(Br)c(C)c([N+](=O)[O-])c2C)=C(Br)C1=O
inactive: dose: 100.0 mg/kg/injection, schedule: Q01DX001 (ip), vehicle: Klucel (hydroxypropylcellulose) (HPC) 100 % of control | dose: 200.0 mg/kg/injection, schedule: Q01DX001 (ip), vehicle: Klucel (hydroxypropylcellulose) (HPC) 110 % of control | dose: 400.0 mg/kg/injection, schedule: Q01DX001 (ip), vehicle: Klucel (hydroxypropylcellulose) (HPC) 100 % of control

CC(C)(C)N1CC1CN (stereo not drawn)
inactive: [6] 90 % of control | [11] 90 % of control | [12] 89 % of control | dose: 400.0 mg/kg/injection, schedule: Q01DX009 (ip), vehicle: saline 121 % of control

CCOC(=O)C1CCC(C(=O)OCC)N1c1ccc(C=O)cc1 (stereo not drawn)
inactive: [2] 122 % of control | dose: 100.0 mg/kg/injection, schedule: Q04DX003 (ip), vehicle: Klucel (hydroxypropylcellulose) (HPC) 105 % of control | [13] 105 % of control | dose: 200.0 mg/kg/injection, schedule: Q04DX003 (ip), vehicle: Klucel (hydroxypropylcellulose) (HPC) 100 % of control | [14] 122 % of control | dose: 400.0 mg/kg/injection, schedule: Q04DX003 (ip), vehicle: Klucel (hydroxypropylcellulose) (HPC) 100 % of control

Reference: PubChem BioAssay AID328 (DTP/NCI, 2004)
